Values quoted from earlier work in US12687554B2, “Molecular profiling of tumors” (Caris MPI, Inc., priority 2006, dated 2026).
“Also recorded” adds a separate entry of the source. Where two headings read alike, the source gives them in different places.

Test system: differentially expressed or mutated biomarker in cancer cells
[1] = EGFR, FISH, Positive, with loss of PTEN, mutation of KRAS or BRAF per Summary
[2] = EGFR, Mutational Analysis, Mutated
[3] = EGFR, Mutational Analysis, Wild type genotype
[4] = PTEN, IHC, Above Threshold, with the other biomarker results named in the Summary
[5] = biomarker PTEN, IHC, result Above Threshold, with the other biomarker results named in the Summary
[6] = biomarker PTEN, IHC, result Negative (loss of PTEN protein expression)
[7] = KRAS, Mutational Analysis, Mutated
[8] = KRAS, Mutational Analysis, Wild type genotype
[9] = KRAS, Mutational Analysis, Wild type genotype, with loss of PTEN and/or FISH negative EGFR per Summary
[10] = biomarker EGFR, FISH, result Negative (lack of EGFR gene copy number increase)
[11] = biomarker EGFR, FISH, result Positive (high EGFR gene copy number)
[12] = biomarker EGFR, FISH, result Positive, with the other biomarker results named in the Summary
[13] = biomarker EGFR, Mutational Analysis, result Mutated
[14] = biomarker EGFR, Mutational Analysis, result Mutated, with the other biomarker results named in the Summary
[15] = biomarker EGFR, Mutational Analysis, result Wild type genotype
[16] = biomarker KRAS, Mutational Analysis, result Wild type genotype
[17] = biomarker KRAS, Mutational Analysis, result Wild type genotype, with the other biomarker results named in the Summary
[18] = biomarker KRAS, Mutational Analysis, result Mutated

CC1=C(/C=C/C(C)=C/C=C/C(C)=C/C(=O)O)C(C)(C)CCC1 [ATRA]
Recommended Agents (RARA, Microarray, Overexpressed, for use only on hematologic malignancies): ATRA

C#Cc1cccc(Nc2ncnc3cc(OCCOC)c(OCCOC)cc23)c1 [Erlotinib]
Resistant Agents (EGFR, FISH, Negative): Erlotinib
Resistant Agents [1]: Erlotinib
Recommended Agents [2]: Erlotinib
Resistant Agents [3]: Erlotinib
Recommended Agents [4]: Erlotinib; also recorded: Erlotinib,
Resistant Agents (PTEN, IHC, Negative): Erlotinib,
Resistant Agents [5]: Erlotinib
Resistant Agents [6]: Erlotinib,; also recorded: Erlotinib

COc1cc2ncnc(Nc3ccc(F)c(Cl)c3)c2cc1OCCCN1CCOCC1 [Gefitinib]
Resistant Agents (EGFR, FISH, Negative): Gefitinib
Resistant Agents [1]: Gefitinib
Recommended Agents [2]: Gefitinib
Resistant Agents [3]: Gefitinib
Recommended Agents [4]: Gefitinib; also recorded: Gefitinib,
Resistant Agents [4]: Gefitinib
Resistant Agents [5]: Gefitinib
Resistant Agents [6]: Gefitinib,; also recorded: Gefitinib

CC(=O)Oc1ccccc1C(=O)O [aspirin]
Recommended Agents (COX-2, IHC, Above Threshold): aspirin
Resistant Agents (COX-2, IHC, Negative): aspirin

CC(=O)Oc1ccccc1C(=O)O [asprin]
Recommended Agents (COX-2, Microarray, Overexpressed): asprin

C#Cc1cccc(Nc2ncnc3cc(OCCOC)c(OCCOC)cc23)c1 [erlotinib]
Resistant Agents (EGFR, FISH, Negative): erlotinib
Recommended Agents (EGFR, FISH, Positive): erlotinib
Resistant Agents [1]: erlotinib
Resistant Agents [7]: erlotinib
Recommended Agents [8]: erlotinib
Resistant Agents [9]: erlotinib
Recommended Agents [4]: erlotinib
Resistant Agents [4]: erlotinib
Resistant Agents (PTEN, IHC, Negative): erlotinib
Resistant Agents [10]: erlotinib
Recommended Agents [11]: erlotinib
Resistant Agents [12]: erlotinib
Recommended Agents [13]: erlotinib
Resistant Agents [14]: erlotinib
Resistant Agents [15]: erlotinib
Recommended Agents [16]: erlotinib
Resistant Agents [17]: erlotinib
Resistant Agents [5]: erlotinib
Resistant Agents [6]: erlotinib,

COc1cc2ncnc(Nc3ccc(F)c(Cl)c3)c2cc1OCCCN1CCOCC1 [gefitinib]
Recommended Agents (EGFR, FISH, Positive): gefitinib
Resistant Agents [1]: gefitinib
Resistant Agents [7]: gefitinib
Recommended Agents [8]: gefitinib
Resistant Agents [9]: gefitinib
Recommended Agents [4]: gefitinib
Resistant Agents [4]: gefitinib
Resistant Agents (PTEN, IHC, Negative): gefitinib
Resistant Agents [10]: gefitinib
Recommended Agents [11]: gefitinib
Resistant Agents [12]: gefitinib
Recommended Agents [13]: gefitinib
Resistant Agents [14]: gefitinib
Resistant Agents [15]: gefitinib
Resistant Agents [18]: gefitinib
Recommended Agents [16]: gefitinib
Resistant Agents [17]: gefitinib
Recommended Agents (biomarker PTEN, IHC, result Above Threshold): gefitinib
Resistant Agents [5]: gefitinib

Cc1ccc(NC(=O)c2ccc(CN3CCN(C)CC3)cc2)cc1Nc1nccc(-c2cccnc2)n1 [imatinib]
Recommended Agents (c-kit, Mutational Analysis, Mutated, mutations in exon 9): imatinib
Resistant Agents (c-kit, Mutational Analysis, Mutated, mutations in exon 11): imatinib
Recommended Agents (c-kit, Mutational Analysis, Wild type genotype): imatinib

CS(=O)(=O)CCNCc1ccc(-c2ccc3ncnc(Nc4ccc(OCc5cccc(F)c5)c(Cl)c4)c3c2)o1 [lapatinib]
Recommended Agents (Her2/Neu, FISH, Amplified): lapatinib
Resistant Agents (Her2/Neu, FISH, Not Amplified): lapatinib
Recommended Agents (Her2/Neu, IHC, Above Threshold): lapatinib
Resistant Agents (Her2/Neu, IHC, Negative): lapatinib
Resistant Agents [4]: lapatinib
Resistant Agents (PTEN, IHC, Negative): lapatinib

Panitumumab
Resistant Agents [1]: Panitumumab,
Recommended Agents [4]: Panitumumab,
Resistant Agents [5]: Panitumumab,
Resistant Agents [6]: Panitumumab,

panitumumab
Resistant Agents (BRAF, Mutational Analysis, Mutated): panitumumab
Recommended Agents (BRAF, Mutational Analysis, Wild type genotype): panitumumab
Resistant Agents (BRAF, Mutational Analysis, Wild type genotype, with loss of PTEN and/or FISH negative EGFR per Summary): panitumumab
Resistant Agents [1]: panitumumab,
Resistant Agents [7]: panitumumab,
Recommended Agents [8]: panitumumab,
Resistant Agents [9]: panitumumab,
Recommended Agents [4]: panitumumab,; also recorded: panitumumab
Resistant Agents [4]: panitumumab,
Resistant Agents (PTEN, IHC, Negative): panitumumab,
Resistant Agents (biomarker BRAF, Mutational Analysis, result Mutated): panitumumab
Resistant Agents (biomarker BRAF, Mutational Analysis, result Wild type genotype, with the other biomarker results named in the Summary): panitumumab
Resistant Agents [10]: panitumumab,
Resistant Agents [12]: panitumumab,
Resistant Agents [18]: panitumumab,
Resistant Agents [17]: panitumumab,
Resistant Agents [5]: panitumumab,
Resistant Agents [6]: panitumumab,
